Data taken from patent US20260027067A1, “TRIENTINE LIQUID DOSAGE FORMS” (BIOPHORE INDIA PHARMACEUTICALS PVT. LTD., priority 2022, published 2026).
Structures can show the parent of a compound that is named as a salt.

Tests used:
[1] = Selection of sweeteners and flavoring agents (formulation trials); conditions: used as sweetener in trientine tetrahydrochloride oral solution
[2] = crystalline powder; cited from earlier work

O=C1NS(=O)(=O)c2ccccc21.[Na] [saccharin sodium]
compatibility of the sweetener in the formulation [1]: incompatibility in the form of milky white curdling

NCCNCCNCCN [Trientine dihydrochloride salt, Trientine dihydrochloride]
hygroscopicity [2]: hygroscopic

Cl.Cl.Cl.Cl.NCCNCCNCCN [Trientine tetrahydrochloride salt, Trientine tetrahydrochloride]
hygroscopicity [2]: not hygroscopic
